# Patent publication US20230235277A1, “3D Tissue Culture Materials and Processes for Producing Same” (INSPHERO AG, priority 2014, published 2023)
# “Also recorded” adds a separate entry of the source.
# How the values were obtained:
# human liver microtissues [1] = assay: Long-term toxicity testing with human liver microtissues, 14 days treatment with 3 re-dosing; type: cell-based; conditions: 336 h, read-out: IC50 value of toxicity (cell death), dose-response
# [2] = test system: 2D cultures of human hepatocytes; assay: Toxicity in 2D cultures of human hepatocytes; type: cell-based; conditions: Hepatocyte, read-out: calculated IC50 value in 2D cultures of human hepatocytes
# human liver microtissues [3] = assay: Inflammation-mediated toxicity testing with human liver microtissues in presence and absence of LPS; type: cell-based
# IL-6 secretion = assay: Quantification of IL-6 secretion of liver microtissues by ELISA after LPS induction; type: cell-based, human; conditions: hepatosphere induced for 48 h with 10 µg/ml LPS
molecule,measurement,setting,value
CC(=O)Nc1ccc(O)cc1 [acetaminophen],IC50,human liver microtissues [1],754 µM
O=C(O)Cc1ccccc1Nc1c(Cl)cccc1Cl [diclofenac],IC50,human liver microtissues [1],179 µM
same,IC50,[2],331 µM
N[C@@H]1[C@H]2CN(c3nc4c(cc3F)c(=O)c(C(=O)O)cn4-c3ccc(F)cc3F)C[C@@H]12 [trovafloxacin],IC50,"human liver microtissues [3]; absence of LPS (−LPS), read-out: IC50 (hepatotoxic threshold) of induced toxicity without LPS",220 µM
same,IC50,"human liver microtissues [3]; presence of LPS (+LPS), read-out: IC50 (hepatotoxic threshold) of induced toxicity in the presence of LPS",71 µM
lipopolysaccharide [LPS],increase in IL-6 secretion,IL-6 secretion,tenfold increase; also recorded: elevated levels of IL-6 secretion
